Where two headings read alike, the source gives them in different places.
What was measured:
in vitro = settings: human
[1] = system: human embryonic lung (HEL) fibroblast cells; settings: mock-infected HEL cells; microscopically visible alterations in cell morphology
HCoV-229E [2] = experiment: Cytopathic effect (CPE) reduction assay with HCoV-229E in HEL cells; assay type: cell-based, human coronavirus 229E; settings: for EC50: Human coronavirus 229E, 120 h; for Selectivity Index MTS: ratio of CC50 to EC50-MTS; for Selectivity Index MTS / Selectivity Index Microscopy: only values of 10 or higher shown; for Selectivity Index Microscopy: ratio of MCC to EC50-microscopy
[3] = biological target: SARS-CoV-2 nsp5 main protease (M^pro) (Severe acute respiratory syndrome coronavirus 2, UniProt P0DTD1); experiment: FRET-based M^pro enzymatic assay; assay type: biochemical; settings: for IC50 on SARS-CoV-2 M^pro enzyme activity: 80 nM nsp5, 5 μM Dabcyl-KTSAVLQSGFRKM-Edans-NH2 substrate, mean ± SEM (N = 3)
Procedure: Serial dilutions of the compounds were incubated with purified nsp5 protein in the presence of substrate (Dabcyl-KTSAVLQ↓SGFRKM-Edans-NH2), and peptide cleavage was followed by an increase in fluorescence. The compounds’ IC50 values were determined by Hill curve fitting. Values are the mean ± SEM (N = 3).
After transforming the pGEX-6P-1 plasmid in E. coli BL21 DE3 gold, nsp5 production was stimulated by overnight induction with 250 μM IPTG at a temperature of 17 °C. After centrifugation, the bacteria were resuspended in buffer consisting of: 50 mM Tris pH 8; 300 mM NaCl; 5 mM MgSO4; 1 mM PMSF; 10 μg/mL DNAse I; 0.25 mg/mL Lysozyme; 0.1%Triton X-100; and 10% glycerol. The cells were lysed by three cycles of sonication and centrifugation. The nsp5 protein was bound to Co-NTA agarose beads and eluted in lysis buffer containing 250 mM of imidazole. Next, the protein product was concentrated on a Vivaspin 20 centrifugal concentrator (10 kDa cut-off; GE Healthcare) and imidazole was removed by dialysis. Finally, the purified nsp5 was stored at −80 °C with 50% glycerol.
M^pro enzymatic assay. The fluorescence resonance energy transfer (FRET)-based protease assay was performed in black 384-well plates. Briefly, serial dilutions of the compounds were incubated with 80 nM nsp5 protein and 5 μM peptide substrate (Dabcyl-KTSAVLQ↓SGFRKM-Edans-NH2; Genscript) in buffer consisting of: 20 mM HEPES pH 6.5; 120 mM NaCl; 0.4 mM EDTA; 4 mM dithiothreitol; and 10% glycerol. The final DMSO content was 0.5%. Cleavage of the substrate was monitored for 40 min by measuring the increasing fluorescence in a Tecan Safire 2 plate reader (wavelength settings: excitation at 335 nm and emission at 493 nm). For each condition, enzyme activity was derived from the slope for the linear part of the curve and expressed relative to the activity in the condition receiving no compound. To determine the IC50 values, GraphPad Prism software was used to plot the % of enzyme activity against compound concentration and then fit the curves according to the equation Y = 100/(1 + (X/IC50)^HillSlope).

HCoV-229E [4] = experiment: One-cycle time-of-compound addition (TOA) assay with HCoV-229E in HEL cells; assay type: cell-based, human coronavirus 229E
SARS-CoV-2 = experiment: RT-qPCR-based SARS-CoV-2 viral load reduction assay in A549-AT cells; assay type: cell-based
[5] = HCoV-229E-infected HEL cells, protection against virus-induced CPE by MTS cell viability assay, five days at 35 °C, read-out: Antiviral EC50 MTS
[6] = HCoV-229E-infected HEL cells, protection against virus-induced CPE by microscopic scoring, five days at 35 °C, read-out: Antiviral EC50 Microscopy

SMILES	CC50 (in vitro) [µM]	Cytotoxicity MCC (minimal cytotoxic concentration) [1] [µM]	EC50 (HCoV-229E [2]; [5]) [µM]	EC50 (HCoV-229E [2]; [6]) [µM]	IC50 [3] [µM]	further results
CC(C)(C)OC(=O)NC(Cc1ccccc1)C(=O)N(Cc1ccccc1)C1(C(=O)NCc2ccccc2)CCN(Cc2ccc([N+](=O)[O-])cc2)CC1 (centres unmarked) [Compound 63, Tert-butyl(1-(benzyl(4-benzylcarbamoyl-1-(4-nitrobenzyl)piperidin-4-yl)amino)-1-oxo-3-phenylpropan-2-yl)carbamate]	> 100	≥100	77 ± 9	82 ± 15	196 ± 39	IC50 on SARS-CoV-2 M^pro enzyme activity [3]: only marginal activity
CC(C)(C)OC(=O)N[C@@H](Cc1ccccc1)C(=O)N(Cc1ccccc1)C1(C(=O)NCc2ccccc2)CCN(Cc2ccccc2)CC1 [Compound 46]	75	≥100	4.5 ± 0.2	7.4 ± 1.3	22 ± 2	Selectivity Index MTS (HCoV-229E [2]): 17; Selectivity Index Microscopy (HCoV-229E [2]): ≥14
CC(C)C[C@H](NC(=O)OCc1ccccc1)C(=O)N[C@@H](C[C@@H]1CCNC1=O)C(O)S(=O)(=O)[O-].[Na+] (some centres unmarked) [GC376]	–	–	–	–	–	inhibition of viral RNA synthesis (HCoV-229E [4]; […], 33 15 µM, GC376 25 µM, GS-441524 20 µM, K22 15 µM): ~ 90%
Cc1ccc(CC(NC(=O)OC(C)(C)C)C(=O)N(Cc2ccccc2)C2(C(=O)NCc3ccccc3)CCN(Cc3ccccc3)CC2)cc1 (centres unmarked) [Compound 52, Tert-butyl(1-(benzyl(1-benzyl-4-benzylcarbamoylpiperidin-4-yl)amino)-1-oxo-3-(p-tolyl)propan-2-yl)carbamate]	–	≥100	4.7 ± 0.6	6.6 ± 1.8	14 ± 4	Selectivity Index MTS (HCoV-229E [2]): >21; Selectivity Index Microscopy (HCoV-229E [2]): ≥15; Antiviral activity EC99 (SARS-CoV-2; 100-fold reduction in viral RNA copies in supernatant at day 3 p.i.): 3.9 µM; EC90 (SARS-CoV-2; Severe acute respiratory syndrome coronavirus 2, 72 h, 10-fold reduction in viral RNA copies in supernatant at day 3 p.i., read-out: Antiviral activity EC90): 1.7 µM
CO/C1=C\C(C)=C\[C@@H](C)[C@@H](O)[C@@H](C)C/C(C)=C/C=C/[C@H](OC)[C@@H]([C@@H](C)[C@@H](O)[C@H](C)[C@@]2(O)C[C@@H](O)[C@H](C)[C@@H](C(C)C)O2)OC1=O [bafilomycin]	–	–	–	–	–	inhibition of viral RNA synthesis (HCoV-229E [4]): 9%
CC(C)(C)OC(=O)N[C@@H](Cc1ccccc1)C(=O)N(Cc1ccc(F)cc1)C1(C(=O)NCc2ccccc2)CCN(Cc2ccccc2)CC1 [Compound 45]	4.4 ± 0.8	50	1.1 ± 0.2	0.85 ± 0.07	15 ± 2	–
COC(=O)C[C@H](NC(=O)OC(C)(C)C)C(=O)N(Cc1ccccc1)C1(C(=O)NCc2ccccc2)CCN(Cc2ccccc2)CC1 [Compound 1]	> 100	>100	> 100	> 100	161 ± 35	Antiviral EC50 MTS (HCoV-229E [2]; HCoV-229E-infected HEL cells, protection against virus-induced CPE by MTS cell viability assay, five days at 35 °C): no activity; IC50 on SARS-CoV-2 M^pro enzyme activity [3]: only marginal activity
COC(=O)CNC(=O)C1(N(Cc2ccccc2)C(=O)[C@H](CC(=O)OC)NC(=O)OC(C)(C)C)CCN(Cc2ccccc2)CC1 [Compound 17]	> 100	>100	75 ± 8	68 ± 3	–	–
COC(=O)C[C@H](NC(=O)OC(C)(C)C)C(=O)N(Cc1ccc(F)cc1)C1(C(=O)NCc2ccccc2)CCN(Cc2cc(F)cc(F)c2)CC1 [Compound 10]	10 ± 2	70	> 100	15 ± 1	–	–
CC(C)(C)OC(=O)N[C@@H](Cc1ccc(F)cc1)C(=O)N(Cc1ccccc1)C1(C(=O)NCc2ccccc2)CCN(Cc2ccccc2)CC1 [Compound 49, Tert-butyl(S)-(1-(benzyl(1-benzyl-4-benzylcarbamoylpiperidin-4-yl)amino)-3-(4-fluorophenyl)-1-oxopropan-2-yl)carbamate]	> 100	≥100	8.4	10	–	Selectivity Index MTS (HCoV-229E [2]): >12; Selectivity Index Microscopy (HCoV-229E [2]): ≥10
CCOC(=O)[C@H]1O[C@@H]1C(=O)N[C@@H](CC(C)C)C(=O)NCCC(C)C [Compound E64d]	–	–	–	–	–	inhibition of viral RNA synthesis (HCoV-229E [4]; compound addition delayed until 4 h p.i., HEL cells lysed at 16 h p.i., E64d 15 µM, bafilomycin 0.00625 µM): 46%
